Test results: patent US10434075B2, “FKBP52 specific androgen receptor inhibitor, MJC13, for use in treating breast cancer” (THE BOARD OF REGENTS OF THE UNIVERSITY OF TEXAS SYSTEM, priority 2016, dated 2019)
“Also recorded” adds a separate entry of the source.

Tests used:
[1] = test system: MCF-7 breast cancer cells; assay: E2-induced proliferation in MCF-7 breast cancer cells; assay type: cell-based; conditions: FIG. 1
[2] = test system: tamoxifen-resistant MCF-7 breast cancer cells; assay: Proliferation in tamoxifen-resistant MCF-7 breast cancer cells; assay type: cell-based; conditions: no difference in AR expression levels, FIG. 2
ER = assay: E2-induced ER chromatin binding / ER recruitment to E2-dependent promoters; assay type: cell-based; conditions: FIG. 3
[3] = target: T1, β-catenin interaction with AR (Homo sapiens, UniProt P10275); assay: β-catenin interaction with AR; conditions: MJC13 targeting to the AR BF3 surface; prostate cancer cells
T1 sequence (P10275 1-920): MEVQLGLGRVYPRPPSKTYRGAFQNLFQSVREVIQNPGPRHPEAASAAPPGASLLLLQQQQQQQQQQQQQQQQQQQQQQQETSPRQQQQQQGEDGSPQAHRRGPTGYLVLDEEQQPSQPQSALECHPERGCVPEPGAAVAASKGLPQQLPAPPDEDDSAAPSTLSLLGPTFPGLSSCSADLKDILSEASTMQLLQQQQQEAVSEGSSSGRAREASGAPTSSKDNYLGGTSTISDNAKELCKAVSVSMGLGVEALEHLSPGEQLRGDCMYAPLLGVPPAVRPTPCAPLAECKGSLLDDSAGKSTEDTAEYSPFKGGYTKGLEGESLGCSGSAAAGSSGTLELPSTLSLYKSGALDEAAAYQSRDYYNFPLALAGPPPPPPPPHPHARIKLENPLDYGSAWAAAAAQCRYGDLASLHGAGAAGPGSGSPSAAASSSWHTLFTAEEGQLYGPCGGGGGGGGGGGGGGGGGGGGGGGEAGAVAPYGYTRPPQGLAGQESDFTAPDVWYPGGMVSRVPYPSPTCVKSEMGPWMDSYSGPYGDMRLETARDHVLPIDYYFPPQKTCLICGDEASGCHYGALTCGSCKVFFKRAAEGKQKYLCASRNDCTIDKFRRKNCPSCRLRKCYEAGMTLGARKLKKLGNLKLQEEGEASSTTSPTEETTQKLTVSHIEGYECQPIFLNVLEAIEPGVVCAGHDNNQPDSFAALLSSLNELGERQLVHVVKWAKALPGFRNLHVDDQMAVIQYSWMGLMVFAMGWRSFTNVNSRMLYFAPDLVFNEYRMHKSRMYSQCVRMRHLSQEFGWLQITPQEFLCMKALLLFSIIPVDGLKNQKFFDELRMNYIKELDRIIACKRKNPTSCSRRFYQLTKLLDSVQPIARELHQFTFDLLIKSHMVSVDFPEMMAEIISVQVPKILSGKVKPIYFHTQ

AR [4] = conditions: variety of human prostate cancer cell lines; cited from earlier work
[5] = test system: human prostate cancer cell lines; conditions: variety of human prostate cancer cell lines; cited from earlier work
[6] = test system: prostate cancer xenograft; conditions: prostate cancer xenograft model, preclinical studies; cited from earlier work
AR [7] = conditions: binding AR BF3 surface; FKBP52-receptor complex prevented from dissociating; cited from earlier work

**Q.** For `O=C(Nc1cccc(Cl)c1Cl)C1CCCCC1` [MJC13], which E2-induced proliferation [1] is on record?
**A.** The E2-induced proliferation was “inhibits E2-induced proliferation; also recorded: effective inhibitor of E2-induced BC cell proliferation”.

**Q.** And the cell proliferation [2]?
**A.** Its cell proliferation is “effectively inhibits cell proliferation”.

**Q.** What about the “E2-induced ER chromatin binding” value (ER) of the same molecule?
**A.** The value was “significantly decreases E2-induced ER chromatin binding; also recorded: affects ER recruitment to E2-dependent promoters”.

**Q.** What about the “β-catenin interaction with AR” value [3] of the same molecule?
**A.** The value was “abrogates β-catenin interaction with AR”.

**Q.** What about the AR signaling (AR [4]) of the same molecule?
**A.** Its AR signaling is “effectively block AR signaling”.

**Q.** And the “AR-dependent cancer cell proliferation” value [5]?
**A.** Its value is “effectively block”.

**Q.** What about the tumor growth [6] of the same molecule?
**A.** The tumor growth was “impressive effects on tumor growth”.

**Q.** And the AR cellular localisation (AR [7])?
**A.** Its AR cellular localisation is “retention of AR in the cytoplasm”.
